≈ marks a conversion by molar mass, not a printed value.
How the values were obtained:
Format in all cases: cell-based
[1] = system: C3H/HeN mouse splenocytes stimulated with Concanavalin A (Con A); experiment: Suppressive effect on mitogenic activity of mouse splenocytes in vitro, Con A as mitogen (MTT); settings: Con A 5 μg/ml as mitogen, 3 days
Procedure: (§1) Experiment 1 Suppressive Effect on a Mitogenic Activity of Mouse Splenocytes In Vitro
(§2) In 96-well microtiter plate 5×10^5 C3H/HeN mouse splenocytes suspended in 0.1 ml of 10% fetal bovine serum-fortified RPMI 1640 medium containing 2 mM of sodium bicarbonate, 50 units/ml of penicillin, 50 μg/ml of streptomycin and 5×10^−5 M of 2-mercaptoethanol were added. Then, 5 μg/ml of Concanavalin A (Con A) or 10 μg/ml of lipopolysaccharide (LPS) as a mitogen and the compound of a pre-determined concentration of the present invention were added to each well so that a final volume of each well reached 0.2 ml. Each compound of the present invention was dissolved in dimethylsulfoxide (DMSO) and diluted with the above RPMI 1640 medium to adjust the final concentration of 100 ng/ml or less. The splenocytes in the 96-well microtiter plate were cultivated at 37° C. for 3 days in an incubator keeping the humidity 100%, carbon dioxide 5% and air 95%. Then, 25 μl of 6 mg/ml MTT [3-(4,5-dimethylthiazol-2-yl)-2,5-diphenyltetrazolium bromide] (Sigma) was added to the each well and cultivated at 37° C. for 4 hours under the same conditions. After the cultivation, 50 μl of 0.02 N hydrochloric acid in 20% sodium dodecyl sulfate (SDS) was added to formazan generated and left at 37° C. for 24 hours for dissolving formazan. An absorption intensity (OD) of formazan generated in proportion to the number of living cells was measured with an immunoreader (InterMed) equipped with a 570 nm filter (The Journal of Immunological Method, 65, 55-63, 1983). The 50% inhibitory concentration of a cell proliferation (IC 50) was calculated from a correlation between the concentration of the compound of the present invention and the absorption intensity.

[2] = system: C3H/HeN mouse splenocytes stimulated with lipopolysaccharide (LPS); experiment: Suppressive effect on mitogenic activity of mouse splenocytes in vitro, LPS as mitogen (MTT); settings: LPS 10 μg/ml as mitogen, 3 days
Procedure: as §1, §2

[3] = system: mouse thymoma strain EL4 cells; experiment: Anti-proliferative activity on EL4 cells (MTT); settings: 3 days
Procedure: Experiment 2 Anti-Proliferative Activity on EL4 Cells
In 96-well microtiter plate 4×10^4/0.1 ml of mouse thymoma strain EL4 cells were added and 0.1 ml of the compound of the present invention was added to the mixture so that the concentration was in the range of 0-5,000 ng/ml. After the cultivation for 3 days, the IC50 was calculated by the MTT method as described in Experiment 1.

[4] = system: IL-2 production of mouse T cell strain EL-4 (TPA); experiment: Suppressive effect on the cytokine production of mouse T cell strain EL-4: IL-2; settings: EL-4, TPA 10 ng/ml, 24 hours, ELISA; for IC50: Mus musculus, T-cell
Procedure: (§3) Experiment 8 Suppressive Effect on the Cytokine Production of a Mouse T Cell Strain EL-4 In 48-well plate were added 2×10^5 mouse T cell strain EL-4 which were suspended in 0.2 ml of 1% fetal bovine serum-added RPMI 1640 medium (2 mM of sodium bicarbonate, 50 units/ml of penicillin, 50 μg/ml of streptomycin and 5×10^−5 M of 2-mercaptoethanol were added) and the compound of the present invention of a predetermined concentration. TPA was added as a cell stimulater at a final concentration of 10 ng/ml to adjust a final volume of each well to 0.4 ml. Each compound of the present invention was dissolved in DMSO and diluted with the above RPMI 1640 medium, and then for added at a final concentration of 100 ng/ml or less. The cells in the 48-well plate were cultivated in an incubator keeping the humidity 100%, carbon dioxide 5% and air 95% at 37° C. for 24 hours to collect a supernatant of each well. The amount of IL-2, IL-4 and IL-5 released in the medium of each well were measured with the ELISA kit (Amersham K. K.) to be taken as an index of the cytokine production of the cells. TPA free group (-TPA) was used as a control.

[5] = system: IL-4 production of mouse T cell strain EL-4 (TPA); experiment: Suppressive effect on the cytokine production of mouse T cell strain EL-4: IL-4; settings: EL-4, TPA 10 ng/ml, 24 hours, ELISA; for IC50: Mus musculus, T-cell
Procedure: as §3

[6] = system: IL-5 production of mouse T cell strain EL-4 (TPA); experiment: Suppressive effect on the cytokine production of mouse T cell strain EL-4: IL-5; settings: EL-4, TPA 10 ng/ml, 24 hours, ELISA; for IC50: Mus musculus, T-cell
Procedure: as §3

SMILES | ConA IC50 [1] [µg/mL] | LPS IC50 [2] [µg/mL] | EL-4 IC50 [3] [µg/mL] | IC50 IL-2 [4] [µg/mL] | IC50 IL-4 [5] [µg/mL] | IC50 IL-5 [6] [µg/mL] | also measured
COc1cc(-c2c(OC)cc(-c3ccc(O)cc3)c(OC)c2CO)ccc1OCC=C(C)C [Compound I-513] | 0.00689 | 0.0111 | 0.0618 |  |  |  | 
COc1cc(-c2ccc(O)cc2)c(OC)c(C)c1-c1ccc(OCC=C(C)C)c(O)c1 [Compound I-106] | 0.0006 | 0.0004 | 0.0027 |  |  |  | 
C=CCOc1ccc(-c2c(OC)cc(-c3ccc(O)cc3)c(OC)c2O)cc1O [Compound I-46] | 0.0106 | 0.0239 | 0.0675 |  |  |  | 
COc1cc(-c2ccc(O)cc2)c(OC)c(O)c1-c1ccc(OCC=C(C)Cl)c(O)c1 [Compound I-41] | 0.00073 | 0.00174 | 0.00489 |  |  |  | 
COc1cc(-c2ccc(O)cc2)c(OC)c(O)c1-c1ccc(OC/C=C/Br)c(O)c1 [Compound I-103] | 0.0034 | 0.0037 | 0.0046 |  |  |  | 
C/C=C\COc1ccc(-c2c(OC)cc(-c3ccc(O)cc3)c(OC)c2O)cc1O [Compound I-50] | 0.00383 | 0.0092 | 0.0119 |  |  |  | 
COc1cc(-c2ccc(N(C)C)cc2)c(OC)c(O)c1-c1ccc(OCC=C(C)C)c(O)c1 [Compound I-255] | <0.02 | <0.02 | <0.02 |  |  |  | 
C/C=C/COc1ccc(-c2c(OC)cc(-c3ccc(O)cc3)c(OC)c2O)cc1O [Compound I-49] | 0.00889 | 0.0162 | 0.0317 |  |  |  | 
C=C/C=C\COc1ccc(-c2c(OC)cc(-c3ccc(O)cc3)c(OC)c2O)cc1O [Compound I-175] | <0.02 | 0.0294 | <0.02 |  |  |  | 
COc1cc(-c2ccc(O)cc2)c(OC)c(CO)c1-c1ccc(OCC=C(C)C)c(OS(C)(=O)=O)c1 [Compound I-12] | 0.0013 | 0.0028 | 0.0462 |  |  |  | 
COc1cc(-c2ccc(N(C)C)cc2)c(OC)c(O)c1-c1ccc(OCc2ccc(C)cc2)c(O)c1 [Compound I-256] | <0.02 | 0.0287 | 0.31 |  |  |  | 
COCOc1c(OC)c(-c2ccc(OS(C)(=O)=O)cc2)cc(OC)c1-c1ccc(OCc2ccccc2)c(O)c1 [Compound I-163] | <0.02 | <0.02 | <0.02 |  |  |  | 
COc1cc(-c2ccc(OCc3ccccc3)c(N)c2)c(OC)cc1-c1ccc(OS(C)(=O)=O)cc1 [Compound I-418] | 0.255 | 0.497 | >10 |  |  |  | 
COc1cc(-c2c(O)c(OC)c(-c3ccc(O)cc3)c(F)c2OC)ccc1OCC=C(C)C [Compound I-1107] |  |  |  |  |  |  | IC50 ([1]; Mus musculus, Splenocyte, 72 h, read-out: ConA IC50): 0.0058 µg/mL (≈ 0.0128 µM); IC50 ([2]; Mus musculus, Splenocyte, 72 h): 0.0091 µg/mL (≈ 0.02 µM); IC50 ([3]; Mus musculus, 72 h, read-out: EL-4 IC50): 0.0341 µg/mL (≈ 0.075 µM)
COc1cc(-c2ccc(F)cc2)c(OC)c(O)c1-c1ccc(OCc2ccccc2)c(O)c1 [Compound I-4] |  |  |  | >0.5 | 0.014 (≈ 0.0314 µM) | 0.12 (≈ 0.269 µM) | 
COc1ccccc1-c1cc(OC)c(-c2ccc(OCc3ccc(C)cc3)c(O)c2)c(O)c1OC [Compound I-282] |  |  |  | >0.5 | <0.005 | 0.13 (≈ 0.275 µM) | 

SMILES | ConA IC50 [1] [µg/mL] | LPS IC50 [2] [µg/mL] | EL-4 IC50 [3] [µg/mL] | IC50 IL-2 [4] [µg/mL] | IC50 IL-4 [5] [µg/mL] | IC50 IL-5 [6] [µg/mL] | also measured
COc1cc(-c2ccc(OS(C)(=O)=O)cc2)c(OC)c(OS(C)(=O)=O)c1-c1cc(C=O)c(OCC=C(C)C)c(OS(C)(=O)=O)c1 [Compound I-128] |  |  |  | >10 | 0.14 (≈ 0.204 µM) | 0.45 (≈ 0.657 µM) | 
COc1cc(-c2ccc(OS(C)(=O)=O)cc2)c(OC)c(OS(C)(=O)=O)c1-c1ccc(OCc2ccccc2)c(C=O)c1 [Compound I-83] |  |  |  | >10 | 0.14 (≈ 0.229 µM) | 1 (≈ 1.63 µM) | 
COc1cc(-c2ccc(OS(C)(=O)=O)cc2)c(OC)c(OS(C)(=O)=O)c1-c1ccc(OCc2ccccc2)c(C(N)=O)c1 [Compound I-148] |  |  |  | >10 | 0.1 (≈ 0.159 µM) | 11 (≈ 17.5 µM) | 
COc1cc(-c2ccc(SC)cc2)c(OC)c(O)c1-c1ccc(OCc2ccccc2)c(O)c1 [Compound I-233] |  |  |  | >1 | 0.012 (≈ 0.0253 µM) | 0.0038 (≈ 0.00801 µM) | 
COc1cc(-c2ccc(C)cc2)c(OC)c(O)c1-c1ccc(OCCC=C(C)C)c(O)c1 [Compound I-279] |  |  |  | >1 | 0.038 (≈ 0.0875 µM) | 0.09 (≈ 0.207 µM) | 
COc1cc(-c2ccc(O)cc2)c(OC)c(O)c1-c1ccc(OCC(C)=C(C)C)c(O)c1 [Compound I-213] |  |  |  | >1 | 0.025 (≈ 0.0573 µM) | 0.023 (≈ 0.0527 µM) | 
COc1cc(-c2ccc(C(F)(F)F)cc2)c(OC)c(OS(C)(=O)=O)c1-c1ccc(OCC=C(C)C)c(OS(C)(=O)=O)c1 [Compound I-189] |  |  |  | >10 | 0.1 (≈ 0.159 µM) | 10 (≈ 15.9 µM) | 
COc1cc(-c2ccc(F)cc2)c(OC)c(C=O)c1-c1ccc(OCC=C(C)C)c(F)c1 [Compound I-379] |  |  |  | >1 | 0.088 (≈ 0.201 µM) | >1 | 
COc1cc(-c2ccc(OS(C)(=O)=O)cc2)c(OC)c(OS(C)(=O)=O)c1-c1ccc(OCCC=C(C)C)cc1 [Compound I-387] |  |  |  | >1 | 0.075 (≈ 0.13 µM) | 0.04 (≈ 0.0694 µM) | 
COc1cc(-c2ccc(OS(C)(=O)=O)cc2)c(OC)c(OS(C)(=O)=O)c1-c1ccc(OS(=O)(=O)c2ccc(C)cc2)c(OS(C)(=O)=O)c1 [Compound I-395] |  |  |  | >1 | 0.001 to 0.01 | >1 | 
COc1cc(-c2ccc(OCC=C(C)C)c(OS(C)(=O)=O)c2)c(OC)cc1-c1ccc(OS(C)(=O)=O)cc1 [Compound I-70] |  |  |  | >2 | 0.0002 (≈ 0.000355 µM) | 1 (≈ 1.78 µM) | 
COc1cc(-c2cccc(C(F)(F)F)c2)c(OC)c(O)c1-c1ccc(OCCC=C(C)C)c(O)c1 [Compound I-220] |  |  |  | >1 | 0.15 (≈ 0.307 µM) | 0.72 (≈ 1.47 µM) | 
COc1cc(-c2ccc(O)cc2)c(OC)c(O)c1-c1ccc(OCc2cc(C)cc(C)c2)c(O)c1 [Compound I-209] |  |  |  | >0.2 | 0.014 (≈ 0.0296 µM) | 0.012 (≈ 0.0254 µM) | 
COc1cc(-c2c(OC)cc(-c3ccc(OS(C)(=O)=O)cc3)c(OC)c2CO)c(OC)cc1OCc1ccc(C)cc1 [Compound I-368] |  |  |  | >1 | 0.072 (≈ 0.121 µM) | 0.38 (≈ 0.639 µM) | 
COc1cc(-c2ccc(OS(C)(=O)=O)cc2)c(OC)c(CO)c1-c1ccc(OCc2ccccc2)c(CO)c1 [Compound I-243] |  |  |  |  |  |  | IC50 [4]: > 0.5 µg/mL; IC50 [5]: 0.063 µg/mL (≈ 0.114 µM); IC50 [6]: > 0.55 µg/mL
COC(=O)c1ccc(-c2cc(OC)c(-c3ccc(OCc4ccc(C)cc4)c(OS(C)(=O)=O)c3)c(OS(C)(=O)=O)c2OC)cc1 [Compound I-239] |  |  |  |  |  |  | IC50 [4]: > 1 µg/mL; IC50 [5]: 0.054 µg/mL (≈ 0.0822 µM); IC50 [6]: 0.9 µg/mL (≈ 1.37 µM)
